Test results reported in patent US10576082B2, “ErbB2 regulates autophagic flux to modulate the proteostasis of APP-CTFs in alzheimer's disease” (Academia Sinica, priority 2016, dated 2020).

Legend:
[1] = system: APPswe/PS1ΔE9 double transgenic mice; assay: Co-immunoprecipitation (anti-BECN1) of brain lysates of treated APPswe/PS1ΔE9 mice; assay type: in vivo, mouse
[2] = system: zebrafish embryos expressing GFP-tagged C99; assay: Phenotype of C99-expressing zebrafish embryos (curved trunk, Notch-dependent somite development); assay type: in vivo; details: treated from 48 hpf to 72 hpf, scored at 72 hpf, n=90
[3] = system: IMR32 neuroblastoma cells overexpressing C99-YFP; assay: Secreted Aβ40 ELISA, conditional media of IMR32 cells overexpressing C99-YFP; assay type: cell-based, human; details: compound 1 μM, 37° C., 24 h
Description: (A) IMR32 cells overexpressing C99-YFP were grown with 2 ml fresh culture medium in 6-well plates, and treated with 1 μM CL-387,785 or DAPT at 37° C. for 24 h. The cell extracts were analyzed by Western blotting. (B) Conditional media were harvested and processed for determination of secreted Aβ40 using a colorimetric Aβ40-specific ELISA kit. (C) C99-YFP-expressing IMR32 cells (160,000 cells/well) were seeded onto 6-well plates and cultured at 37° C. for 24 h, and infected with ErbB1- or ErbB2-targeting shRNA lentivirus for an additional 48 h. Infection mixtures were replaced with 2 ml fresh culture medium, and infected cells were then incubated at 37° C. for an additional 24 h. The cell extracts were analyzed by Western blotting with anti-GFP antibody. (D) The conditioned media were harvested and processed for determination of secreted Aβ40. Data are the mean±SD from three independent experiments, and were analyzed by Student's t-tests. * p<0.05. (E) Schematic presentation of the DNA construct encoding recombinant C99-GFP-P2A-GFP. […]
Cell-based γ-secretase assays for the nuclear function of AICD or NICD. […] Cellular luminescence was determined by the addition of Steady-Glo Luciferase Assay reagents (PROMEGA™), according to the manufacturer's instructions. […] The level of secreted Aβ40 was quantified using a human Aβ40 sandwich ELISA kit (Invitrogen) according to the manufacturer's instructions.

[4] = system: APPswe/PS1ΔE9 double transgenic mice; assay: Morris water maze in APPswe/PS1ΔE9 transgenic mice; assay type: in vivo, mouse; details: 5 mg/kg daily oral
[5] = system: γ-secretase-mediated proteolysis of C99 (CG cells); assay: Cell-based C99-specific γ-secretase assay (CG cells, Gal4 luciferase reporter); details: 1 μM inhibitor, 1 μg/ml tetracycline, 37° C., 24 h
Description: (A) Adherent CG and NG cells (20,000 cells/well) were treated with 1 μM of the indicated ErbB1/2-selective tyrosine kinase inhibitors in the presence of 1 μg/ml tetracycline at 37° C. for 24 h. The luminescence signals emitted by cells treated with vehicle alone (Ctrl, 0.1% DMSO) were referred to as 100% relative luminescence signals. The luminescence signals generated by γ-secretase-mediated proteolysis of C99 (CG) or NΔE (NG) were determined using the Steady-Glo luciferase assay reagent. (B) HEK293 overexpressing C99-YFP cells were treated with 1 μM of the indicated ErbB1/2 tyrosine kinase inhibitors at 37° C. for 24 h. Clarified lysates were analyzed by Western blotting and quantified by Image J. (C) HEK293 overexpressing ErbB1 ErbB2, CFP-tagged C99, and YFP-tagged NΔE cells were infected with gene-targeting shRNA-encoding lentivirus (shErbB1 or shErbB2) at 37° C. for 48 h. Clarified lysates containing equivalent amounts of proteins were examined by Western blotting and quantified by Image J. (D) CG and NG cells were infected with gene-targeting shRNA-encoding lentivirus at 37° C. for 48 h. Following induction with 1 μg/ml tetracycline for 24 h. […] Data are shown as the mean±SD from three independent experiments, and were analyzed by Student's t-tests. * p<0.05. […]

[6] = system: APPswe/PS1ΔE9 double transgenic mice; assay: Western blotting of brain homogenates of treated APPswe/PS1ΔE9 mice; assay type: in vivo, mouse; details: 5 mg/kg daily oral, 20 days

In the case of `CC#CC(=O)Nc1ccc2ncnc(Nc3cccc(Br)c3)c2c1` [CL-387,785, N-[4-[(3-bromophenyl)amino]-6-quinazolinyl]-2-butynamide], the “phosphorylation of EGFR(ErbB1) in brain” value ([1]; 5 mg/kg daily oral, 20 days) is reported as “inhibited”, the “interaction between ErbB2 with Beclin-1 in brain” value ([1]; 5 mg/kg daily oral, 20 days, co-immunoprecipitation) is reported as “drastically suppressed” and the “formation of the Beclin1-Vps34-Vps15 complex” value ([1]; summary statement for the compound (FIG. 7)) is reported as “rescues the formation”. The “embryo phenotype (trunk, tail, pigmentation; developmental defects)” value [2] was “all but one CL-387,785-treated embryos exhibited wild-type trunks and tails with normal pigmentation”, the “level of secreted Aβ40” value [3] was “significantly reduced” and the “probe test with invisible platform (cognitive function versus vehicle-treated AD mice)” value ([4]; after 3 weeks of daily dosing (day 21)) was “dramatic cognitive improvement”. The “spatial learning (escape latency, Morris water maze)” value ([4]; after 16 days of daily dosing) was “significantly enhanced spatial learning”, the “processing of C99 (luminescence signal in CG cells)” value [5] was “effectively blocked the processing of C99” and the “brain level of APP-CTF” value [6] was “significant reduction”. The “brain level of ErbB2” value [6] was “significant reduction”, the “brain level of p62” value [6] was “significant reduction” and the “brain level of total APP” value [6] was “steady level”. The “brain ratio of LC3-II to LC3-I” value [6] was “increase”.
